Values after ≈ are worked out from the molar mass of the structure shown.
Tested on: PT22AV
Test: Minimum inhibitory concentration of fungicides in NYDA agar
Conditions: for Minimum inhibitory concentration: fungicide against PT22AV, incorporated in NYDA agar; for Resistance level: resistance level of PT22AV to the fungicide; for MIC: Papiliotrema terrestris, read-out: Minimum inhibitory concentration

Row | Molecule | Minimum inhibitory concentration | Resistance level | MIC
1 | CO/C=C(/C(=O)OC)c1ccccc1Oc1cc(Oc2ccccc2C#N)ncn1 [Azoxystrobin] | 1000 µg/mL (≈ 2.48 mM) | Resistant | –
2 | CCCCNC(=O)n1c(NC(=O)OC)nc2ccccc21 [Benomyl] | – | Resistant | 1000 µg/mL (≈ 3.44 mM)
3 | COC(=O)Nc1nc2ccccc2[nH]1 [Carbendazim] | – | Resistant | 1000 µg/mL (≈ 5.23 mM)
4 | [Cl-].[Cu+2].[Cu+2].[OH-].[OH-].[OH-] [Copper oxychloride] | 500 µg/mL | Resistant | –
5 | N#Cc1c[nH]cc1-c1cccc2c1OC(F)(F)O2 [Fludioxonil] | – | – | 1000 µg/mL (≈ 4.03 mM)
6 | C=CCOC(Cn1ccnc1)c1ccc(Cl)cc1Cl (stereo not drawn) [Imazalil] | – | Sensitive | 300 µg/mL (≈ 1.01 mM)
7 | CCCC(Cn1cncn1)c1ccc(Cl)cc1Cl (stereo not drawn) [Penconazol] | – | Sensitive | 200 µg/mL (≈ 0.704 mM)
8 | CC12CC1(C)C(=O)N(c1cc(Cl)cc(Cl)c1)C2=O (stereo not drawn) [Procymidone] | – | Resistant | 1000 µg/mL (≈ 3.52 mM)
9 | S1SSSSSSS1 [Sulfur] | – | Resistant | 2000 µg/mL (≈ 7.8 mM)
10 | CC(C)(C)C(O)(CCc1ccc(Cl)cc1)Cn1cncn1 (stereo not drawn) [Tebuconazole] | – | Sensitive | 100 µg/mL (≈ 0.325 mM)
11 | c1ccc2[nH]c(-c3cscn3)nc2c1 [Thiabendazole] | – | Resistant | 1000 µg/mL (≈ 4.97 mM)
12 | CON=C(C(=O)OC)c1ccccc1CON=C(C)c1cccc(C(F)(F)F)c1 [Trifloxystrobin] | – | Resistant | 1000 µg/mL (≈ 2.45 mM)
13 | C=CC1(C)OC(=O)N(c2cc(Cl)cc(Cl)c2)C1=O (stereo not drawn) [Vinclozolin] | – | Resistant | 1000 µg/mL (≈ 3.5 mM)
14 | Mancozeb | 300 µg/mL | Sensitive | –

From patent US20240188569A1, “NEW YEAST STRAIN AND ITS USES FOR THE CONTROL OF PHYTOPATHOGENS” (AGROVENTURES LLC, priority 2021, published 2024)
